Laboratory results published in patent publication US8580268B2, “CpG oligonucleotide analogs containing hydrophobic T analogs with enhanced immunostimulatory activity” (Coley Pharmaceutical GmbH, priority 2006, dated 2013).
“Also recorded” adds a separate entry of the source. Strand notation (5' to 3'): a small letter for the sugar, then the base; units joined by * are phosphorothioate-linked, units joined directly phosphodiester-linked; [ ] holds rarer units or linkages, { } end groups; capitals alone tell only the bases. [5IU] = 5-iodo-2'-deoxyuridine (publication's JU); d = 2'-deoxy (DNA)

Assays:
human TLR9 = target: T1, human TLR9 (Homo sapiens, UniProt Q9NR96); experiment: TLR9 luciferase assay (NF-κB reporter) in hTLR9-LUC-293 cells; format: cell-based; conditions: 16 h, stated in words relative to the comparator ODN
T1 construct: expressed in transfected cells
T1 sequence (Q9NR96 26-1032): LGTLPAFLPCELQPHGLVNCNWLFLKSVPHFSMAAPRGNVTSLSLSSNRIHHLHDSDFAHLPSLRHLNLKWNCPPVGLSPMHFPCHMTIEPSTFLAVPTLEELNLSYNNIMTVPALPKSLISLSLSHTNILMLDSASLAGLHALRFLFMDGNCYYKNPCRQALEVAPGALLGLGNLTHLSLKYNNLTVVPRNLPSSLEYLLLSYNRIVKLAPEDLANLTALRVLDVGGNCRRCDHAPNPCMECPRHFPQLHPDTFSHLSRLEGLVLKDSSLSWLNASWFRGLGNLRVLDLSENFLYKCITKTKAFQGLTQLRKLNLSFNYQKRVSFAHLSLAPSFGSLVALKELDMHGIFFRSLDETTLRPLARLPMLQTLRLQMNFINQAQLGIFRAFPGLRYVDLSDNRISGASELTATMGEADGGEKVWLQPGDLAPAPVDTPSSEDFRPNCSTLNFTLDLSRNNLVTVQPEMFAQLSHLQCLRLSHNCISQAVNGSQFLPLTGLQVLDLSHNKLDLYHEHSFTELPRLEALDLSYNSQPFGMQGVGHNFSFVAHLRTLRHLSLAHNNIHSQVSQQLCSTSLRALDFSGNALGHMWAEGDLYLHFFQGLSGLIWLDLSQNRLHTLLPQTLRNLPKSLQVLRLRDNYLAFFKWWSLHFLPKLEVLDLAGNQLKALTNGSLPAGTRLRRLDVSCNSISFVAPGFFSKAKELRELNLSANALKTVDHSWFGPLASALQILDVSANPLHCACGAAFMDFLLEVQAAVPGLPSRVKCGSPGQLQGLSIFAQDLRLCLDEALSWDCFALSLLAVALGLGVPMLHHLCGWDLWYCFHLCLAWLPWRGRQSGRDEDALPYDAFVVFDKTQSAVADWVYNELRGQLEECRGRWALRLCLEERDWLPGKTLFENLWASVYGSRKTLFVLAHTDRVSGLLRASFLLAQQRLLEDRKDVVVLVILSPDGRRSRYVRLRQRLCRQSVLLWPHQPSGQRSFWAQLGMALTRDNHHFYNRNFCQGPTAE
Description: HEK293 cells were transfected by electroporation with vectors expressing the respective human TLR and a 6xNF-κB-luciferase reporter plasmid. Stable transfectants (3×10^4 cells/well) were incubated indicated amounts of ODN for 16 h at 37° C. in a humidified incubator. Each data point was done in triplicate. Cells were lysed and assayed for luciferase gene activity (using the BriteLite kit from Perkin-Elmer, Zaventem, Belgium). Stimulation indices were calculated in reference to reporter gene activity of medium without addition of ODN.

BALB/c mouse splenocytes [1] = experiment: Cytokine ELISA of mouse splenocyte culture supernatants; format: cell-based; conditions: BALB/c splenocyte supernatants at 6 hour (TNF-alpha) or 24 hours (IL-6, IL-10, IL-12)
Source text: Naïve BALB/c mouse splenocytes (from pools of 3-5 animals) were used for in vitro assays. Animals were anaesthetized with isoflurane and euthanized by cervical dislocation. Spleens were removed under aseptic conditions and placed in PBS+0.2% bovine serum albumin (Sigma Chemical Company). Spleens were then homogenized and splenocytes were re-suspended in RPMI 1640 (Life Technologies, Grand Island, N.Y.) tissue culture medium supplemented with 2% normal mouse serum (Cedarlane Laboratories, Ontario, Canada), penicillin-streptomycin solution (final concentration of 1000 U/ml and 1 mg/ml respectively; Sigma Chemical Company), and 5×10−5 M b-mercaptoethanol (Sigma Chemical Company).
In order to determine the efficacy of the modified ODN of the invention […], ODN with lipophilic T analogs were tested in isolated mouse splenocytes. BALB/c mouse splenocytes were isolated and incubated with modified B class (SEQ ID NO:13), unmodified B class (SEQ ID NO:37), and a non-CpG ODN (SEQ ID NO:26) (Table 5). Culture supernatants were collected at 6 hour (TNF-alpha) or 24 hours (IL-6, IL-10, IL-12) and cytokine concentration was measured by ELISA.

BALB/c mouse splenocytes [2] = experiment: B cell proliferation in CFSE-stained mouse splenocytes (FACS); format: cell-based; conditions: 0.001-10 μg/ml ODN, 72 hours, CD19 FACS
Description: Caboxy-florescein diacetate, succimidyl ester (CFSE) (Invitrogen, Eugene, Oreg., USA) stained BALB/c mouse splenocytes (4×10^5/well) were incubated with different concentrations of ODN in a humidified 5% CO2 incubator at 37° C. for […]. Cells were then stained with PE conjugated anti-CD19 antibody (BD Pharmingen, San Diego, Calif., USA) for CD19 and B-cell proliferation was determined by FACS followed by analysis by ModFit Software V3.0 (Verity Software House Inc., Topsham, Me., USA).
ODN were then tested their ability to induce B cell proliferation in splenocytes. CFSE-stained BALB/c mouse splenocytes (4×10^5/well) were incubated with 0.001, 0.01, 0.1, 0.3, 1, 3 or 10 μg/ml of the indicated ODN (FIG. 14). At 72 hours post-incubation, cells were stained for cell surface marker CD19 and B-cell proliferation was determined by FACS followed by analysis by ModFit Software. […] The increase was most pronounced even at lower ODN concentration.

BALB/c mice [3] = experiment: In vivo plasma cytokine production after SC injection (ELISA); parameters: species or system mouse
Description: (§1) Female BALB/c mice (6-8 weeks of age) were purchased from Charles River Canada (Quebec, Canada) and housed in micro-isolators in the Animal Care Facility at Coley Pharmaceutical Group Canada. All studies were conducted in accordance with the Animal Care Committee of Coley Canada under the guidance of the Canadian Council on Animal Care. All animals were naïve to CpG ODNs.
To measure the effect of modified ODN in vivo, BALB/c mice (5 per group) were injected subcutaneously (SC) with 10, 50 or 100 μg of SEQ ID NO:13 or 100 μg of SEQ ID NO:37 in a total volume of 100 μl SC. Control group received 100 μl of PBS alone. Animals were bled by cardiac puncture at 1 hour post injection (TNF-alpha) or 3 hours post injection (IP-10). Plasma samples were assayed ELISA for TNF-alpha (FIG. 15a) and IP-10 (FIG. 15b).

PBMC = experiment: B-cell proliferation in CFSE-labeled human PBMC; format: cell-based; conditions: CFSE-labeled PBMC from three donors, 5 days, CD19 staining
Description: Next the activity of modified P-class class ODN (SEQ ID NO:58, 60-62, FIG. 29a) (SEQ ID NO:64 and 67, FIG. 29b) was compared to that of an unmodified B-class ODN (SEQ ID NO:55), an unmodified C-class ODN (SEQ ID NO:54), a negative control ODN (SEQ ID NO:53), an unmodified P-class ODN (SEQ ID NO:56), LPS, R-848, SEB, and a poly[I]:[C] ODN. CFSE-labeled PBMC from three donors were incubated with the ODN for 5 days and then stained with a CD19 antibody. The percentage of B cells with reduced CFSE staining was determined.

BALB/c mice [4] = experiment: In vivo murine IFN-alpha induction after SC injection (ELISA); parameters: species or system mouse; conditions: bled at 3 hr post injection
Description: as §1
In order to determine the effect of the modified P-class ODN in vivo, BALB/c mice (5 per group) were injected SC with differing doses of ODN. Animals were bled at 3 hr post injection and plasma tested for IFN-alpha by ELISA. The activity of modified P-class ODN (SEQ ID NO:58, 60-62, 64, and 67) was compared to that of a B-class negative control (SEQ ID NO:55) and a negative control (SEQ ID NO:26).

Substance | TLR9 stimulation (NF-κB luciferase activity, relative stimulation index) (human TLR9) | cytokine concentration (TNF-alpha, IL-6, IL-10, IL-12) (BALB/c mouse splenocytes [1]) | B-cell proliferation (BALB/c mouse splenocytes [2]) | plasma TNF-alpha production (BALB/c mice [3]; 1 hour post injection) | plasma IP-10 production (BALB/c mice [3]; 3 hours post injection) | percentage of B cells with reduced CFSE staining (PBMC) | plasma IFN-alpha induction (BALB/c mice [4])
T*G*JU*C-G*T*T*T*T*T*T*T*T*T*T*T*T*T*T*T (DNA dT*dG*d[5IU]*dCdG*dT*dT*dT*dT*dT*dT*dT*dT*dT*dT*dT*dT*dT*dT*dT) [SEQ ID NO:13] | greater stimulation of TLR9 activity over control; also recorded: more active in the assay than the parent ODN | dramatically increased levels of all cytokines tested | marked increase in B-cell proliferation | higher | higher |  | 
T*C*G*T*C*G*T*T*T*T*G*T*C*G*T*T*T*T*G*T*C*G*T*T [SEQ ID NO:55, reference compound] |  |  |  |  |  | highest percentage of B cells after division | did not induce much murine IFN-alpha
